Test results taken from US20180273528A1 (LES LABORATOIRES SERVIER, priority 2015, published 2018).

Assays:
[1] = biological target: T1, His-TEV-DYRK1A Kinase domain (aa127-485) (Homo sapiens, UniProt Q13627); test: Kinase ADP assay (ADP Hunter), DYRK1A kinase domain; format: biochemical; settings: 20 μM ATP
T1 construct: His-TEV-DYRK1A Kinase domain (aa127-485); His tag (N); TEV protease cleavage site (N)
How it was run: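 Readout is ADP Hunter fluorescence at 590 nm, developed 20 min at 30 °C after the kinase step. That step ran 10 min at 30 °C in Hepes pH 7.4 (10 mM MgCl2, 1 mM EGTA, 0.02% Tween20) containing 20 μM ATP, 40 μM peptide and 20 nM enzyme plus compound.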

DYRK1A [2] = biological target: T2, DYRK1A (Homo sapiens, UniProt Q13627); test: Cellular DYRK1 autophosphorylation assay in U2-OS cells; format: cell-based; design: full-length, wild-type human DYRK1A (NM_001396) with an HA tag; expressed in transfected cells; host or cells: human U2-OS osteosarcoma cells, transient transfection of a pcDNA3.1 plasmid; settings: U2-OS cells transfected with HA-tagged human DYRK1A, 5 hours exposure; read-out: IC50 (μM) P-Ser520-Dyrk1A -Cell assay
How it was run: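 IC50 derived from dose-response curves of phospho-Ser520-DYRK1A (blots normalised to total DYRK1A), quantified by either immunoblotting with chemiluminescence or Mesoscale electrochemiluminescent ELISA. Compounds applied to U2-OS cells across several concentrations for 5 hours.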

DYRK1A [3] = biological target: T2, DYRK1A; test: Kinase TR-FRET assay, DYRK1A; format: biochemical; design: full-length, wild-type human DYRK1A (NM_001396) with an HA tag; expressed in transfected cells; host or cells: human U2-OS osteosarcoma cells, transient transfection of a pcDNA3.1 plasmid; settings: full-length human kinase, 10 μM ATP
How it was run: (§1)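 Compounds tested at 0.1 nM to 30 μM in reaction buffer; reaction stopped with 10 mM EDTA. Phosphorylated MBP detected with 1 nM Europium-labelled anti-phospho-Thr232 antibody by TR-FRET.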

DYRK1B = biological target: T3, DYRK1B (Homo sapiens, UniProt Q9Y463); test: Kinase TR-FRET assay, DYRK1B; format: biochemical; settings: full-length human kinase, 10 μM ATP
T3 construct: full-length human kinases from Carna Biosciences; purchased Carna Biosciences 04-131
T3 sequence (Q9Y463 whole entry): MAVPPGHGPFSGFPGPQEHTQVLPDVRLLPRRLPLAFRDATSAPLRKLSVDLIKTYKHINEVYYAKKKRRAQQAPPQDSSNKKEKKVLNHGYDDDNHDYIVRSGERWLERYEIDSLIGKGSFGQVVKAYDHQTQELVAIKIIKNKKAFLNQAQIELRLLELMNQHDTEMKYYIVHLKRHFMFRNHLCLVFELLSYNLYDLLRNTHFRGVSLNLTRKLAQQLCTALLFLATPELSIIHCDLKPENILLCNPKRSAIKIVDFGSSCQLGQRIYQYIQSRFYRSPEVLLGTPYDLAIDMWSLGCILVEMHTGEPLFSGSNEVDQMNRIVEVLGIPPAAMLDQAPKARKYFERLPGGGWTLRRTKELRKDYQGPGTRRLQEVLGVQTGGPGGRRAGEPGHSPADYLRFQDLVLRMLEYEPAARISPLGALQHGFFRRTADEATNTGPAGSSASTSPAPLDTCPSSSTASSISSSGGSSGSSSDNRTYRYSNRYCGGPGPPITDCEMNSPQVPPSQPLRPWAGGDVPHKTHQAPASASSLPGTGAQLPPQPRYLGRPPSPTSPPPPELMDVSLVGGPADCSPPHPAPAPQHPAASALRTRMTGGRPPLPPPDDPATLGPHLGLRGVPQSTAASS
How it was run: as §1

CLK1 = biological target: T4, CLK1 (Homo sapiens, UniProt P49759); test: Kinase TR-FRET assay, CLK1; format: biochemical; settings: full-length human kinase, 10 μM ATP
T4 construct: full-length human kinases from Carna Biosciences; purchased Carna Biosciences 04-126
T4 sequence (P49759 1-526 isoform P49759-3): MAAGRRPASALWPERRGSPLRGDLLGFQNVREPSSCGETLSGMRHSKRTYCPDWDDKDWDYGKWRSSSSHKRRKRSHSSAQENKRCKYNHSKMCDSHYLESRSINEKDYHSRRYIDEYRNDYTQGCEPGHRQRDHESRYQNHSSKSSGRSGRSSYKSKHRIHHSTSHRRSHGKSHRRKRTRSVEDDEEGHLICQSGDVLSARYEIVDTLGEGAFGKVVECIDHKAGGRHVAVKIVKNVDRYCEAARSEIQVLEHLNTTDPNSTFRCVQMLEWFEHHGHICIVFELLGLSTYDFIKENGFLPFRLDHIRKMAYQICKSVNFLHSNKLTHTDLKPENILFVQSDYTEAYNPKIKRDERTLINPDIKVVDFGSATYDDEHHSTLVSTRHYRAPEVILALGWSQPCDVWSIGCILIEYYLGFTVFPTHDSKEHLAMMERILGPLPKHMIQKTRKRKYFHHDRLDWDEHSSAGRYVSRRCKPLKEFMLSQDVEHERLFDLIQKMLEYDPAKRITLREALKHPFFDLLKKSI
Protocol: Inhibition of the enzymatic activity of human kinases was evaluated in a Time-Resolved Fluorescence Resonance Energy Transfer (TR-FRET) assay in 384-well reaction plates. […] Test compounds of the invention were added in reaction buffer at a range of concentrations from 0.1 nM to 30 μM. Following addition of EDTA (Sigma E7889, 10 mM) to stop the reaction, Europium-labelled mouse monoclonal antibody recognizing phospho-Thr232 in MBP (Perkin Elmer TRF0201, 1 nM) was added.

CDK9 = biological target: T5, CDK9 (Homo sapiens, UniProt P50750); test: Kinase TR-FRET assay, CDK9; format: biochemical; settings: full-length human kinase, 10 μM ATP
T5 construct: full-length human kinases from Carna Biosciences; purchased Carna Biosciences 04-110
T5 sequence (P50750 whole entry): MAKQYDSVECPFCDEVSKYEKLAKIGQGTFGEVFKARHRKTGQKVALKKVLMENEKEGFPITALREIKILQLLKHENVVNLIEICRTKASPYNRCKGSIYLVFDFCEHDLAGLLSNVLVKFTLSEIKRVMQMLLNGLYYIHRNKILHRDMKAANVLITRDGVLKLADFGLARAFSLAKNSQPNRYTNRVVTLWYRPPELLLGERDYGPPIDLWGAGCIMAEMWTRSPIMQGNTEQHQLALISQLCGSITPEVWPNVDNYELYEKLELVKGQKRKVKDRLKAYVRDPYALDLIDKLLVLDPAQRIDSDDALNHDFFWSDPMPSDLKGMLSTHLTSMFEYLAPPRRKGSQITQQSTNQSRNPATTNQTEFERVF
T5 sequence (O60563 whole entry partner): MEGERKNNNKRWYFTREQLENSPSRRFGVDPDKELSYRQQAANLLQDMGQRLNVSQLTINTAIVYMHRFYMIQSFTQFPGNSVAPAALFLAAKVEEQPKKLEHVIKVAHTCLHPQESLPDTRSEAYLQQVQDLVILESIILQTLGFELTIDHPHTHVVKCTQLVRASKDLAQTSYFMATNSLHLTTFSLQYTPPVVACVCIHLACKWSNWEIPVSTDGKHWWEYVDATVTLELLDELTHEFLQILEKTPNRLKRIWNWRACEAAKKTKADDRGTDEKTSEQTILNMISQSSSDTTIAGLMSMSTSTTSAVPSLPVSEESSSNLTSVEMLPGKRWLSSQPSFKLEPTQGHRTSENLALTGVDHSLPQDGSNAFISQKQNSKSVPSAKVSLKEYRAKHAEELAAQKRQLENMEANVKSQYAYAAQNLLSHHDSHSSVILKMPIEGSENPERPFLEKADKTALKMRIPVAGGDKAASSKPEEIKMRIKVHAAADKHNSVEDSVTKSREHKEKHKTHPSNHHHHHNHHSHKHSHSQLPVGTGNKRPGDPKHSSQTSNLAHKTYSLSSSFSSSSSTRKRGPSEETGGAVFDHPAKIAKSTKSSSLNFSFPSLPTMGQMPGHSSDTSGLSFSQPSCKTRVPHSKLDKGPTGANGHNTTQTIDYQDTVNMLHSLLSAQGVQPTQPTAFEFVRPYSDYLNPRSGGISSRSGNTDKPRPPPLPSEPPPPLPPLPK
How it was run: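 Full-length human CDK9 (0.9 ng/μl) incubated 100 min at room temperature with 10 μM ATP, 100 nM ULight-MBP peptide and compound (0.1 nM–30 μM) in 50 mM HEPES pH 7.4, 1 mM EGTA, 10 mM MgCl2, 2 mM DTT, 0.01% Tween20. Stopped with 10 mM EDTA, then 1 nM Eu-anti-phospho-Thr232 MBP antibody added for 1 h. TR-FRET read at 665/620 nm with 340 nm excitation.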

Compound | IC50 [1] [µM] | IC50 (DYRK1A [2]) [µM] | IC50 (DYRK1A [3]) [µM] | IC50 (DYRK1B) [µM] | IC50 (CLK1) [µM] | IC50 (CDK9) [µM]
Cc1nc2ccc(-c3cc(N)nc(N)c3)nc2n1C[C@@H](C)Oc1ccccn1 (single isomer, unassigned) [Example 175] | 0.02 | 0.131 | 0.007 | 0.016 | 0.04 | > 3
Cc1nc2ccc(-c3cc(N)nc(N)c3)nc2n1C[C@@H](C)Oc1cccc(Cl)n1 (single isomer, unassigned) [Example 177] | 0.014 | 0.042 | 0.005 | 0.005 | 0.017 | 0.554
Cc1nc2ccc(-c3cc(N)nc(N)c3)nc2n1C[C@@H](C)Oc1cccc(F)n1 (single isomer, unassigned) [Example 189] | 0.013 | 0.026 | 0.007 | 0.007 | 0.017 | 0.339
COc1cc(Cn2c(C)nc3ccc(-c4cc(N)nc(N)c4)nc32)ccn1 [Example 72, 4-{3-[(2-methoxypyridin-4-yl)methyl]-2-methyl-3H-imidazo[4,5-b]pyridin-5-yl}pyridine-2,6-diamine] | 0.015 | 0.184 | 0.01 | 0.014 | 0.09 | > 10
Cc1nc2ccc(-c3cc(N)nc(N)c3)nc2n1CC1CC1(Cl)Cl (stereo not drawn) [Example 74, 4-{3-[(2,2-dichlorocyclopropyl)methyl]-2-methyl-3H-imidazo[4,5-b]pyridin-5-yl}pyridine-2,6-diamine] | 0.014 | 0.092 | 0.006 | 0.01 | 0.021 | 0.476
Cc1nc2ccc(-c3cc(N)nc(N)c3)nc2n1CCC(C)C [Example 75, 4-[2-methyl-3-(3-methylbutyl)-3H-imidazo[4,5-b]pyridin-5-yl]pyridine-2,6-diamine] | 0.012 | 0.035 | 0.003 | 0.006 | 0.019 | 0.843
Cc1nc2ccc(-c3cc(N)nc(N)c3)nc2n1CC1CCCC1 [Example 89, 4-[3-(cyclopentylmethyl)-2-methyl-3H-imidazo[4,5-b]pyridin-5-yl]pyridine-2,6-diamine] | 0.014 | 0.068 | 0.004 | 0.009 | 0.024 | 1.46
Cc1nc2ccc(-c3cc(N)nc(N)c3)nc2n1CCc1cccc(C(F)(F)F)c1 [Example 91, 4-(2-methyl-3-{2-[3-(trifluoromethyl)phenyl]ethyl}-3H-imidazo[4,5-b]pyridin-5-yl)pyridine-2,6-diamine] | 0.013 | 0.062 | 0.004 | 0.008 | 0.016 | 2.92
COC1CCCCC1CCn1c(C)nc2ccc(-c3cc(N)nc(N)c3)nc21 (stereo not drawn) [Example 95, 4-{3-[2-(2-methoxycyclohexyl)ethyl]-2-methyl-3H-imidazo[4,5-b]pyridin-5-yl}pyridine-2,6-diamine] | 0.012 | 0.021 | 0.003 | 0.011 | 0.029 | 1.8
Cc1nc2ccc(-c3cc(N)nc(N)c3)nc2n1CC(F)F [Example 115, 4-[3-(2,2-difluoroethyl)-2-methyl-3H-imidazo[4,5-b]pyridin-5-yl]pyridine-2,6-diamine] | 0.013 | 0.034 | 0.003 | 0.006 | 0.028 | 5.69

Stronger by IC50 [1], values ahead:

IC50 [1] [µM] | IC50 (DYRK1A [2]) [µM] | IC50 (DYRK1A [3]) [µM] | IC50 (DYRK1B) [µM] | IC50 (CLK1) [µM] | IC50 (CDK9) [µM] | Compound
0.005 | 0.09 | 0.006 | 0.014 | 0.025 | 2.62 | Cc1nc2ccc(-c3cc(N)nc(N)c3)nc2n1CC1Cc2ccccc21 (single isomer, unassigned) [Example 112, 4-[3-(bicyclo[4.2.0]octa-1,3,5-trien-7-ylmethyl)-2-methyl-3H-imidazo[4,5-b]pyridin-5-yl]pyridine-2,6-diamine]
0.008 | 0.05 | 0.002 | 0.001 | 0.016 | 1.95 | C=CCCn1c(C)nc2ccc(-c3cc(N)nc(N)c3)nc21 [Example 14, 4-[3-(but-3-en-1-yl)-2-methyl-3H-imidazo[4,5-b]pyridin-5-yl]pyridine-2,6-diamine]
0.006 | 0.017 | 0.002 | 0.008 | 0.012 | 0.57 | Cc1nc2ccc(-c3cc(N)nc(N)c3)nc2n1C1CCC1 [Example 23, 4-(3-cyclobutyl-2-methyl-3H-imidazo[4,5-b]pyridin-5-yl)pyridine-2,6-diamine]
0.011 | 0.13 | 0.003 | 0.017 | 0.017 | 0.979 | Cc1nc2ccc(-c3cc(N)nc(N)c3)nc2n1C1CCOCC1 [Example 49, 4-[2-methyl-3-(tetrahydro-2H-pyran-4-yl)-3H-imidazo[4,5-b]pyridin-5-yl]pyridine-2,6-diamine]
0.007 | 0.038 | 0.006 | 0.001 | 0.029 | 4.37 | C=CCn1c(C)nc2ccc(-c3cc(N)nc(N)c3)nc21 [Example 51, 4-[2-methyl-3-(prop-2-en-1-yl)-3H-imidazo[4,5-b]pyridin-5-yl]pyridine-2,6-diamine]
0.006 | 0.022 | 0.001 | 0.005 | 0.018 | > 10 | CCCCCn1c(C)nc2ccc(-c3cc(N)nc(N)c3)nc21 [Example 65, 4-(2-methyl-3-pentyl-3H-imidazo[4,5-b]pyridin-5-yl)pyridine-2,6-diamine]
0.009 | 0.065 | 0.004 | 0.008 | 0.019 | 4.66 | Cc1nc2ccc(-c3cc(N)nc(N)c3)nc2n1CCc1ccc2c(c1)OCO2 [Example 73, 4-(3-[2-(1,3-benzodioxol-5-yl)ethyl]-2-methyl-3H-imidazo[4,5-b]pyridin-5-yl)pyridine-2,6-diamine]
0.006 | 0.058 | 0.002 | 0.007 | 0.017 | 0.564 | Cc1nc2ccc(-c3cc(N)nc(N)c3)nc2n1CCC1CCCC1 [Example 92, 4-[3-(2-cyclopentylethyl)-2-methyl-3H-imidazo[4,5-b]pyridin-5-yl]pyridine-2,6-diamine]
0.005 | 0.017 | 0.003 | 0.007 | 0.016 | 1.08 | CCCCCCn1c(C)nc2ccc(-c3cc(N)nc(N)c3)nc21 [Example 94, 4-(3-hexyl-2-methyl-3H-imidazo[4,5-b]pyridin-5-yl)pyridine-2,6-diamine]
0.011 | 0.075 | 0.004 | 0.01 | 0.02 | 3.09 | Cc1nc2ccc(-c3cc(N)nc(N)c3)nc2n1CCc1ccc(F)cc1 [Example 96, 4-{3-[2-(4-fluorophenyl)ethyl]-2-methyl-3H-imidazo[4,5-b]pyridin-5-yl}pyridine-2,6-diamine]
